Values quoted from earlier work in patent publication US20110015154A1, “SUPPORTING ACETYLCHOLINE FUNCTION” (priority 2009, published 2011).

Assays:
[1] = tested on: nuclear factor-kappa B (NFκB); details: after 14 days of administration
cells = details: against hydrogen peroxide, beta-amyloid protein, glutamate, ischemia, staurosporine-induced cytotoxicity, and apoptosis
[2] = supplementation
M1 receptors = details: adult rats
M2 receptors = details: adult rats
[3] = in vivo

C/C=C1\[C@H]2C=C(C)C[C@]1(N)c1ccc(=O)[nH]c1C2 [huperzine A, Huperzine A]
activation of glial cells in an ischemic event [1]: reduced | nuclear translocation of transcription factor NFκB [1]: inhibited | overexpression of pro-inflammatory mediators in an immune challenge [1]: decreased | cell protection (cells): protects cells

CC(=O)O[C@H](CC(=O)[O-])C[N+](C)(C)C [acetyl-L-carnitine]
pain in patients with diabetic peripheral neuropathy [2]: reduce pain

C[N+](C)(C)CCOP(=O)([O-])OC[C@H](O)CO [α-GPC, Alpha-glycerylphosphorylcholine]
effect on M1 receptors (M1 receptors): countered the loss of M1 receptors | effect on M2 receptors (M2 receptors): no effect | blood-brain barrier passage [3]: can cross the blood-brain barrier | metabolism [3]: rapidly metabolized into choline and glycerophosphate
